Assay results reported in patent publication US11065292B2, “Feijoa fruit extract” (CALLAGHAN INNOVATION, priority 2012, dated 2021).

Experiments:
[1] = system: collagen-induced arthritis (CIA) mice; assay: Collagen-induced arthritis mice: clinical score, treadmill, histology, radiology; assay type: in vivo
splenocytes of CIA mice = assay: Cytokine ELISA on splenocytes of CIA mice; assay type: in vivo; conditions: mean ± SD, 5 mice
Method: The production of IL-2, IL-4, IL-6, and IFN-γ from mitogen-stimulated splenocytes was determined as previously described (Chouaib, S.; Welte, K.; Mertelsman, R.; Dupont, B.; J. Immunol., 1985, 135, 1172-1179). Spleens were gently teased with forceps in the culture medium producing a suspension of spleen cells (CM, RPMI 1640 containing 10% fetal bovine serum, 2 mM L-glutamine, 1×10^5 units/L of penicillin and streptomycin). The red blood cells were lysed with 3 mL of lysing buffer (0.16 mol/L ammonia chloride Tris buffer, pH 7.2) at 37° C. for 5 minutes. The cells were then washed with CM twice. The cell concentrations were counted and adjusted to 2×10^6 cells/mL. Splenocytes ([…]) were cultured in triplicate on 96-well flat-bottom culture plates. Splenocytes (0.1 mL/well) were stimulated with ConA (1×10^−2 g/L, 0.1 mL/well) to induce IL-2, IL-4 and IFN-γ production. In other plates, splenocytes were cultured with lipopolysaccharide (1×10^−6 g/L) to induce IL-6 production. These plates were incubated at 37° C., 5% CO2; the culture time for IL-2, IL-4 and IL-6 is 24 hours (or 72 hours for IFN-γ). After incubation, supernatants were collected and stored at −70° C. The cytokines were determined by sandwich ELISA as previously described using a commercial kit.
To establish whether the protective effect of the feijoa fruit extract was related to the anti-inflammatory response observed in the CIA mice, pro-inflammatory cytokines (TNF-α, IL-2 and INF-γ) were investigated using the ELISA assay described in Example 3 (Table 9). It is well known that such cytokines play crucial roles in joint destruction by damaging the synovial cells within the joint. Consequently, a reduction in synovial cells within the joint results in an increase in friction, which in turn, results in inflammation and the potential development of arthritis.

[2] = day 56-79, diet with extract (1.8 mg/day) or 10 mg/kg methotrexate, mean ± SD, 5 mice

CN(Cc1cnc2nc(N)nc(N)c2n1)c1ccc(C(=O)N[C@@H](CCC(=O)O)C(=O)O)cc1 [Methotrexate, methotrexate]
Clinical Score (paw swelling) ([1]; day 56-79, diet with extract (1.8 mg/day) or 10 mg/kg methotrexate, 5 mice): 10.5 ± 0.7
Foot pressure (treadmill) [1, 2]: 141.23 ± 5.28
Running Speed (treadmill) [1, 2]: 121.36 ± 1.69 mm/s
Histological evaluation of joint sections (H&E) ([1]; end of trial, FIGS. 2, 3): relatively normal joint structures with little soft tissue swelling
IFN-γ level by splenocytes (splenocytes of CIA mice): 182 ± 21 pg/mL
IL-2 level by splenocytes (splenocytes of CIA mice): 104 ± 10 pg/mL
TNF-α level by splenocytes (splenocytes of CIA mice): 255 ± 15 pg/mL
